Measured values taken from publication PMC12865225 (Clinical and Translational Science, 2026).

Experiments:
[1] = PBPK model input parameters (binding, absorption, distribution, elimination), Simcyp; parameters: species or system human
Protocol: The volume of distribution
at steady-state (Vss), predicted using the Rodgers and Rowland model (Model 2) within the
oral (PO) data.7–9,11,12,14,24 Only studies with 1000 mg dosing or lower were included in the
model development and verification due to the possible nonlinear renal clearance of
(CLH) as a human liver microsomal clearance from the in vivo CLH calculated by subtracting
the CLR from the total CL. The model for oral dosing was optimized using data from the study
by Putnam et al. (2005).9 The absorption rate constant (ka) was calculated from the reported
mean absorption time9 and the fraction absorbed (fa) was optimized manually. The obtained
Tissue distribution was described using the full-body PBPK model, with the tissue-to-plasma
partition coefficient (Kp) predicted based on the Rodgers and Rowland method integrated
within the simulator (Method 2). The Kp value for adipose was optimized manually (0.04 to

[2] = test system: CYP3A4; conditions: model input; cited from earlier work
[3] = target: T1, OATP1B1 (Homo sapiens, UniProt Q9Y6L6); experiment: Determination of inhibition constant Ki for OATP1B1, rosuvastatin; format: cell-based; conditions: rosuvastatin 1-80 µM, 30 min preincubation, 2 min; read-out: Ki-value for the competitive inhibition of OATP1B1
T1 construct: expressed in transfected cells; host or cells: HEK293 (recombinant baculovirus-mediated transduction)
T1 sequence (Q9Y6L6 1-691): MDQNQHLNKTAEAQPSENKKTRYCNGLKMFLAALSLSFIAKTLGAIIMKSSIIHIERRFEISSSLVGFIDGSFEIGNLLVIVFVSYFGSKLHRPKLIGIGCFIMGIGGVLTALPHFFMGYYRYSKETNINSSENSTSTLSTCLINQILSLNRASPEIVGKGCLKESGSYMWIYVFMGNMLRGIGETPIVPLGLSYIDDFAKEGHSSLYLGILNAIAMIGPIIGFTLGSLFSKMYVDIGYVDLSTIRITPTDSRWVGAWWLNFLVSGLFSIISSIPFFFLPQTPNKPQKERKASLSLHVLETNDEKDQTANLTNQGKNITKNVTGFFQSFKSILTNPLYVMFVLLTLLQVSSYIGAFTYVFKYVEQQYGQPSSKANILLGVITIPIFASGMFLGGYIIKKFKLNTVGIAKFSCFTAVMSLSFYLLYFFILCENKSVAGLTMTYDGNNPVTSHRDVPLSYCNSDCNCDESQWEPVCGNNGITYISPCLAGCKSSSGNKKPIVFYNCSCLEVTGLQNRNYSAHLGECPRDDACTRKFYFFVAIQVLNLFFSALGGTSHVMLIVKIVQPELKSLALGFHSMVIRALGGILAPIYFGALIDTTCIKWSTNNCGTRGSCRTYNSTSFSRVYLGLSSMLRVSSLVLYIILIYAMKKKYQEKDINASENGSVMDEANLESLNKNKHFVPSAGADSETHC
Protocol: were removed and 300 µl of warm TP-buffer was added to each well and incubated for 5 min.
The washing was repeated twice , after which the transport assays were conducted in the presence of 1 µM 2′,7′ -dichlorofluorescein for 5 min. The wells that were pre -incubated with […]
incubated with the vehicle contained three different inhibitor concentrations. After the transport assays, the samples were treated and analyzed similarly as described in the main text and above. The uptake into vehicle control samples w as set to a value of 100% and all the inhibitor samples are presented relative to the vehicle control samples. […]
determined in a single experiment in triplicate samples by using 1 µM, 4 µM and 20 µM […]
µM, 2.5 µM, 10 µM, 20 µM, 40 µM and 80 µM). The assays included a 30 min preincubation step with the inhibitor , and the transport assays were conducted for 2 min . Further details are reported in the methods of the main text. The Ki value was calculated by fitting the com petitive inhibition model to the data with the nonlinear least squares method (nls) in R programming language environment (R version 4.3.1) :
Uptake refers to the rate of uptake in OATP1B1-expressing cells, after subtracting the uptake in control cells , Vmax is the maximum rate of transport, K m is the Michaelis constant, S is the […]
Efflux transport assays in HEK293 membrane vesicles […]

[4] = cited from earlier work
[5] = retrograde calculation from CLH (2.65 l/h)

Row | SMILES | CLH ([1]; Total CL – CLR) | CLu,int,CYP2C9 (µl/min/pmol P450) [1, 5] | CLu,int,CYP3A4 (µl/min/pmol P450) [1, 5] | CYP3A4 Indmax [2] | Ki [3] | decrease of renal clearance by probenecid [4] | increase of C max and AUC by cyclosporine and probenecid [4]
1 | Cc1onc(-c2c(F)cccc2Cl)c1C(=O)N[C@@H]1C(=O)N2[C@@H]1SC(C)(C)[C@@H]2C(=O)O [Flucloxacillin] | 2.65 L/h | 0.124 µl/min/pmol P450 | 0.062 µl/min/pmol P450 | 4.6 | – | – | –
2 | Cc1onc(-c2c(Cl)cccc2Cl)c1C(=O)N[C@@H]1C(=O)N2[C@@H]1SC(C)(C)[C@@H]2C(=O)O [Dicloxacillin] | – | – | – | – | 3.65 µM | 4 fold | < 2 fold
